Results as given in ChEMBL document CHEMBL6109104, “Synthesis and antibacterial evaluations of novel vancomycin analogues targeting bacteria membrane to combat Gram-negative infections” (Eur J Med Chem, 2025).
Converted amounts (≈) assume the structure as drawn. The source made the active and inactive calls. The calls are words filed in the database; no cut-off is given here.

Assays:
Acinetobacter baumannii [1] = assay: Antibacterial activity against Acinetobacter baumannii ATCC17978 incubated for 16 to 18 hrs by muller hinton broth based microplate reader analysis; assay type: functional; conditions: time 16-18 hrs
Escherichia coli [2] = assay: Antibacterial activity against Escherichia coli ATCC35150 incubated for 16 to 18 hrs by muller hinton broth based microplate reader analysis; assay type: functional; conditions: time 16-18 hrs
Escherichia coli [3] = assay: Antibacterial activity against Escherichia coli ATCC25922 incubated for 16 to 18 hrs by muller hinton broth based microplate reader analysis; assay type: functional; conditions: time 16-18 hrs
Acinetobacter baumannii [4] = assay: Antibacterial activity against Acinetobacter baumannii ATCC17978 infected in neutropenic thigh infection Kunming mouse model assessed as reduction in bacterial load in thigh at 20 mg/kg, sc pretreated with bacteria for 2 hrs followed by compound addition and measured after 16 hrs; assay type: functional, organism-based
Acinetobacter baumannii [5] = assay: Antibacterial activity against Acinetobacter baumannii ATCC19606 incubated for 16 to 18 hrs by muller hinton broth based microplate reader analysis; assay type: functional; conditions: time 16-18 hrs
HEK-293T [6] = assay: Cytotoxicity against HEK293T cells at 1.0 uM incubated for 72 hrs by MTT assay relative to control; assay type: toxicity, cell-based; conditions: human
HEK-293T [7] = assay: Cytotoxicity against HEK293T cells at 0.5 uM incubated for 72 hrs by MTT assay relative to control; assay type: toxicity, cell-based; conditions: human
Acinetobacter baumannii [8] = assay: Antibacterial activity against Acinetobacter baumannii ATCC17978 incubated for 12 hrs and measured after 20 passages; assay type: functional, organism-based
Acinetobacter baumannii [9] = assay: Antibacterial activity against Acinetobacter baumannii ATCC17978 assessed as bactericidal rate by measuring bacterial count at 8 times MIC incubated for 4 hrs by muller-hinton agar based time-kill kinetics assay; assay type: functional, organism-based
Cell membrane [10] = assay: Disruption of cell membrane in Acinetobacter baumannii ATCC17978 assessed as increase in protein leakage incubated for 4 hrs by BCA assay
Staphylococcus aureus [11] = assay: Antibacterial activity against methicillin-resistant Staphylococcus aureus USA300 incubated for 16 to 18 hrs by muller hinton broth based microplate reader analysis; assay type: functional; conditions: time 16-18 hrs
[12] = Hemolytic activity in sheep RBC at 64 ug/ml incubated for 1 hrs by absorbance based analysis; assay type: toxicity, cell-based, Ovis aries; conditions: erythrocyte, dose 64 µg/ml
HEK-293T [13] = assay: Cytotoxicity against HEK293T cells at 64 ug/ml incubated for 72 hrs by MTT assay; assay type: toxicity, cell-based; conditions: human, dose 64 µg/ml
Acinetobacter baumannii [14] = assay: Antibacterial activity against Acinetobacter baumannii ATCC17978 assessed as bactericidal rate by measuring bacterial count at 4 times MIC incubated for 4 hrs by muller-hinton agar based time-kill kinetics assay relative to control; assay type: functional
Acinetobacter baumannii [15] = assay: Antibacterial activity against Acinetobacter baumannii ATCC17978 infected in neutropenic thigh infection Kunming mouse model assessed as reduction in bacterial load in thigh at 10 to 20 mg/kg, sc pretreated with bacteria for 2 hrs followed by compound addition and measured after 16 hrs; assay type: functional, organism-based; conditions: dose 10-20 mg/kg
Acinetobacter baumannii [16] = assay: Antibacterial activity against Acinetobacter baumannii ATCC17978 assessed as bactericidal rate by measuring bacterial count incubated for 6 hrs by muller-hinton agar based time-kill kinetics assay; assay type: functional, organism-based
Staphylococcus aureus [17] = assay: Antibacterial activity vancomycin-intermediate resistant Staphylococcus aureus incubated for 16 to 18 hrs by muller hinton broth based microplate reader analysis; assay type: functional; conditions: time 16-18 hrs
Cell membrane [18] = assay: Disruption of cell membrane in Acinetobacter baumannii ATCC17978 assessed as increase in DNA leakage incubated for 4 hrs by microspectrophotometer analysis
Cell membrane [19] = assay: Induction of cytoplasmic membrane permeabilization in Acinetobacter baumannii ATCC17978 assessed as increase in fluorescence intensity at 16 times MIC incubated for 10 mins by SYTOX green assay
[20] = Toxicity in Kunming mouse infected with Acinetobacter baumannii ATCC17978 assessed as changed in body weight at 10 to 20 mg/kg; assay type: organism-based; conditions: in vivo, dose 10-20 mg/kg
Cell membrane [21] = assay: Induction of cell membrane disruption in Acinetobacter baumannii ATCC17978 assessed as increase in ROS level incubated for 30 mins by DCFH-DA probe based microplate reader analysis
Acinetobacter baumannii [22] = assay: Antibacterial activity against Acinetobacter baumannii ATCC17978 infected in neutropenic thigh infection Kunming mouse model assessed as reduction in bacterial survival at 10 mg/kg, sc pretreated with bacteria for 2 hrs followed by compound addition and measured after 16 hrs; assay type: functional, organism-based

Structure (SMILES)	MIC (Acinetobacter baumannii [1]) [µg/mL]	MIC (Escherichia coli [2]) [µg/mL]	MIC (Escherichia coli [3]) [µg/mL]	MIC (Acinetobacter baumannii [5]) [µg/mL]	MIC (Staphylococcus aureus [11]) [µg/mL]	MIC (Staphylococcus aureus [17]) [µg/mL]	also measured
CN[C@H](CC(C)C)C(=O)N[C@H]1C(=O)N[C@@H](CC(N)=O)C(=O)N[C@H]2C(=O)N[C@H]3C(=O)N[C@H](C(=O)N[C@H](C(=O)O)c4cc(O)cc(O)c4-c4cc3ccc4O)[C@H](O)c3ccc(c(Cl)c3)Oc3cc2cc(c3O[C@@H]2O[C@H](CO)[C@@H](O)[C@H](O)[C@H]2O[C@H]2C[C@](C)(N)[C@H](O)[C@H](C)O2)Oc2ccc(cc2Cl)[C@H]1O [VANCOMYCIN]	> 128	> 128	> 128	> 128			Activity (Acinetobacter baumannii [4]): inactive
COc1cccc2c1C(=O)c1c(O)c3c(c(O)c1C2=O)C[C@@](O)(C(=O)CO)C[C@@H]3O[C@H]1C[C@H](N)[C@H](O)[C@H](C)O1 [DOXORUBICIN]							Activity (HEK-293T [6]): 85.6%; Activity (HEK-293T [7]): 27.3%
CCCCCCCCCCCC[N+]1(C)CCN(C(=O)[C@H]2NC(=O)[C@H]3NC(=O)[C@H](NC(=O)[C@@H]4NC(=O)[C@H](CC(N)=O)NC(=O)[C@H](NC(=O)[C@@H](CC(C)C)NC)[C@H](O)c5ccc(c(Cl)c5)Oc5cc4cc(c5O[C@@H]4O[C@H](CO)[C@@H](O)[C@H](O)[C@H]4O[C@H]4C[C@](C)(N)[C@H](O)[C@H](C)O4)Oc4ccc(cc4Cl)[C@H]3O)c3ccc(O)c(c3)-c3c(O)cc(O)cc32)CC1.[Br-] (stereo in doubt)	8	16	16	16	1	8	Activity (Acinetobacter baumannii [8]): Active; Activity (Acinetobacter baumannii [9]): inactive; Activity (Cell membrane [10]): Dose-dependent-effect; Activity [12]: Toxic; Activity (HEK-293T [13]): Non-toxic; Activity (Acinetobacter baumannii [14]): 100%; Activity (Acinetobacter baumannii [15]): Active; Activity (Acinetobacter baumannii [16]): Dose-dependent-effect; Activity (Cell membrane [18]): Dose-dependent-effect; Activity (Cell membrane [19]): Active; Activity [20]: Non-toxic; Activity (Cell membrane [21]): Active
O=C(O)c1cn(C2CC2)c2cc(N3CCNCC3)c(F)cc2c1=O [CIPROFLOXACIN]	0.5 (≈ 1.51 µM)			1 (≈ 3.02 µM)	0.25 (≈ 0.754 µM)	1 (≈ 3.02 µM)	Activity (Acinetobacter baumannii [22]): Active; Activity (Acinetobacter baumannii [9]): Active
CN[C@H](CC(C)C)C(=O)N[C@H]1C(=O)N[C@@H](CC(N)=O)C(=O)N[C@H]2C(=O)N[C@H]3C(=O)N[C@H](C(=O)N[C@H](C(=O)O)c4cc(O)cc(O)c4-c4cc3ccc4O)[C@H](O)c3ccc(c(Cl)c3)Oc3cc2cc(c3O[C@@H]2O[C@H](CO)[C@@H](O)[C@H](O)[C@H]2O[C@H]2C[C@](C)(NC(=O)CCCCCCCCCCC[n+]3cccc(NC(=O)OC(C)(C)C)c3)[C@H](O)[C@H](C)O2)Oc2ccc(cc2Cl)[C@H]1O.[Br-]	> 128	> 128	> 128	> 128	4	> 128	
CN[C@H](CC(C)C)C(=O)N[C@H]1C(=O)N[C@@H](CC(N)=O)C(=O)N[C@H]2C(=O)N[C@H]3C(=O)N[C@H](C(=O)N[C@H](C(=O)O)c4cc(O)cc(O)c4-c4cc3ccc4O)[C@H](O)c3ccc(c(Cl)c3)Oc3cc2cc(c3O[C@@H]2O[C@H](CO)[C@@H](O)[C@H](O)[C@H]2O[C@H]2C[C@](C)(NC(=O)CCCCCCCCCCC[n+]3ccc(N)cc3)[C@H](O)[C@H](C)O2)Oc2ccc(cc2Cl)[C@H]1O.O=C(O)C(F)(F)F.[Br-]	> 128	> 128	> 128	> 128	1	32	
CCCCCCCCCCCCCCCCCC[N+]1(C)CCN(C(=O)[C@H]2NC(=O)[C@H]3NC(=O)[C@H](NC(=O)[C@@H]4NC(=O)[C@H](CC(N)=O)NC(=O)[C@H](NC(=O)[C@@H](CC(C)C)NC)[C@H](O)c5ccc(c(Cl)c5)Oc5cc4cc(c5O[C@@H]4O[C@H](CO)[C@@H](O)[C@H](O)[C@H]4O[C@H]4C[C@](C)(N)[C@H](O)[C@H](C)O4)Oc4ccc(cc4Cl)[C@H]3O)c3ccc(O)c(c3)-c3c(O)cc(O)cc32)CC1.[Br-] (stereo in doubt)	> 128	> 128	> 128	> 128	1	64	
CN[C@H](CC(C)C)C(=O)N[C@H]1C(=O)N[C@@H](CC(N)=O)C(=O)N[C@H]2C(=O)N[C@H]3C(=O)N[C@H](C(=O)N[C@H](C(=O)O)c4cc(O)cc(O)c4-c4cc3ccc4O)[C@H](O)c3ccc(c(Cl)c3)Oc3cc2cc(c3O[C@@H]2O[C@H](CO)[C@@H](O)[C@H](O)[C@H]2O[C@H]2C[C@](C)(NC(=O)CCCCCCC[n+]3ccc(C)cc3)[C@H](O)[C@H](C)O2)Oc2ccc(cc2Cl)[C@H]1O.[Br-]	> 128	> 128	> 128	> 128	8	> 128	
CCCCCCCCCC[n+]1ccc(C(=O)NCCNC(=O)[C@H]2NC(=O)[C@H]3NC(=O)[C@H](NC(=O)[C@@H]4NC(=O)[C@H](CC(N)=O)NC(=O)[C@H](NC(=O)[C@@H](CC(C)C)NC)[C@H](O)c5ccc(c(Cl)c5)Oc5cc4cc(c5O[C@@H]4O[C@H](CO)[C@@H](O)[C@H](O)[C@H]4O[C@H]4C[C@](C)(N)[C@H](O)[C@H](C)O4)Oc4ccc(cc4Cl)[C@H]3O)c3ccc(O)c(c3)-c3c(O)cc(O)cc32)cc1.[Br-]	32	> 128	> 128	16	2	64	
